Measured values taken from patent US4084006A, “Method of using dialkylphenols an antiviral agents” (priority 1977, dated 1978).

Tests used:
[1] = system: pneumonia virus of mice (PVM); assay: Serum PVM titers in rats; type: in vivo, pneumonia virus of mice (host: rat); conditions: for Mycoplasma infected rats that failed to show titers for PVM: sera of 19 infected rats
Source text: (§1) Attempts were made to test the effect of infecting rats with Mycoplasma pulmonis (ATCC 19612) so that they could transmit the disease to their cage mates and, also allowed them to breed. This was also done to test if the mothers would pass the infection on to their litters. These rats were purchased from a laboratory in Indianapolis, Indiana and they were divided into 6 groups with male animals in each group. In the 5 experimental groups, a total of 15 female rats out of 30, and in the control group 4 female rats out of 8 were infected intranasally with Mycoplasma pulmonis (ATCC 19612). There were two male rats per experimental group and 3 for the controls totaling 13 male rats, and none of these were infected with M. pulmonis.
(§2) The experimental groups (8 rats each) and control group were treated as follows:
(§3) All rats were fed ad libitum rat chow, and their cages were cleaned 5-6 times weekly. For the 5 experimental groups, the 2,4 DMP was dissolved in distilled water used for their drinking fluid while the control only received distilled water. There were times when the rats spilled excessive amounts of their drinking water and this caused a certain amount of the phenol to be evaporated from these cages, particularly those groups receiving the higher concentrations of the phenol. This way, it was possible for the controls to inhale a small but indefinite amount of the phenol which is volatile. All animals were kept in the same laboratory room.
All the male animals (13) were sacrificed after 14 days, and after impregnating the females. Their blood was collected by heart puncture, and the animals lungs were saved in 10% formalin for pathology. All the female rats (18) that were not infected, except one, intranasally with M. pulmonis were sacrificed 30 days post infection of their cage mates. All the young born to these rats (non-infected), during this time were also sacrificed. The blood and lungs from the adult females were saved for study.
The 19 female rats infected with M. pulmonis and one non-infected female were allowed to raise their litters so that the young could be weaned, and then they were sacrificed 58 days post infection, saving their blood and lungs for study.
When the offsprings from the M. pulmonis infected mothers were 40-50 days old a proportionate number selected at random were sacrificed, saving blood and lungs for study:
The serum of each rat sacrificed was tested for antibodies for Mycoplasma. […] One of these rats was in the group receiving one part per million of the phenol and other was a control. Therefore, it was concluded that the Mycoplasma pulmonis was not the cause of the lung infection in these rats, but there was still enough pathology evident in these lungs to suspect some unknown infection. Consequently, the serum of the control rat showing a low titer for Mycoplasma pulmonis was screened by a commercial laboratory for virus infections commonly associated with rats.
All blood serums saved from these experiments were tested for PVM titers. Sera from eight of the 13 males sacrificed at 14 days had detectable titers. All three of these controls had titers indicating PVM infection leaving 5 treated rats with titers for PVM. In the 18 non-infected female rats that were sacrificed after 30 days two rats were negative for PVM titers, one was in the 1 PPM and the other was in the 1 PPB treated groups.

[2] = system: Mycoplasma pulmonis (ATCC 19612); assay: Serum antibodies for Mycoplasma in rats; type: in vivo, Mycoplasma pulmonis (host: rat); conditions: one part per million; two of 19 infected rats in all groups, the other a control
Source text: as §1, §2
as §3, with “This way, it was possible for the controls to inhale a small but indefinite amount of the phenol which is volatile. All animals were kept in the same laboratory room.” left out

[3] = system: Mycoplasma pulmonis (ATCC 19612); assay: Rats infected intranasally with Mycoplasma pulmonis: lung pathology and breeding; type: in vivo, Mycoplasma pulmonis (host: rat); conditions: 1 PPB in drinking water 58 days; three M. pulmonis infected female rats
Source text: as §1, §2
as §3, with “This way, it was possible for the controls to inhale a small but indefinite amount of the phenol which is volatile. All animals were kept in the same laboratory room.” left out

[4] = system: chronic respiratory disease (CRD); assay: Treatment of chronic respiratory disease in inbred GM rats; type: in vivo, rat (GM); as to Dead animals: tested at 0.001 ppm; as to Ill animals: tested at 0.001 ppm; as to Well animals: tested at 0.001 ppm; as to new born rats, all appeared healthy: tested at 0.001 ppm; as to total number of rats in colony: tested at 0.001 ppm
Experimental: One-half of a colony of spontaneously hypertensive (SH) rats was treated with 2,4-dimethylphenol in their drinking water at a concentration of one part per billion. The other half of this colony was given only tap water, and both groups observed for 76 days. The second experiment was with a highly inbred strain (GM) of rats that were about to expire, because of chronic respiratory infection. […] Both groups, the SH rats and the GM rats, were not breeding because of their infections and were in seriously poor health.
The second experiment was run concurrently with Example 36, but this time the animals were the highly inbred GM strain. A number of these animals were ill with chronic respiratory disease and unable to breed. These rats were randomly divided into two groups of 26 each. The experimental group received 1 PPB of the 2,4-dimethylphenol in their drinking water and the control group received only tap water.

[5] = day 58, 1 PPB in drinking water, GM rats
[6] = day 66, 1 PPB in drinking water, GM rats
[7] = day 73, 1 PPB in drinking water, GM rats
[8] = day 80, 1 PPB in drinking water, GM rats
[9] = over 2.5 years, 1 PPB in drinking fluid, combined GM groups

Structure (SMILES): Cc1ccc(O)c(C)c1 [2,4-dimethylphenol]
- non-infected female rats negative for PVM titers ([1]; 1 PPM, sacrificed after 30 days, all controls positive): one
- offspring with detectable titers for PVM ([1]; 47 offsprings tested, treated groups and controls exposed to vapors): not one
- effect on PVM ([1]; 51 rats purchased, drinking water): appeared to have had an effect on this virus so as to depress its passage to other animals
- Mycoplasma infected rats that failed to show titers for PVM ([1]; 100 parts per billion): two
- treated male rats with titers for PVM ([1]; males sacrificed at 14 days, all treated groups, all three controls positive): 5
- Mycoplasma infected rats that failed to show titers for PVM ([1]; one part per million): two
- M. pulmonis infected rats with detectable Mycoplasma antibody titers [2]: One
- lung infection compared with the other four groups and the controls [3]: for all practical purposes, clear of infection
- new born rats, all appeared healthy ([4]; by day 150, 1 PPB in drinking water, GM rats): 31
- breeding of experimental group ([4]; by day 150, 1 PPB, GM rats, control group did not start breeding): began to breed
- Ill animals [4, 5]: 3
- Well animals [4, 5]: 23
- Total number of rats ([4]; day 58, 1 PPB in drinking water, GM rats, 26 at start): 26
- Ill animals [4, 6]: 3
- Well animals [4, 6]: 23
- Total number of rats ([4]; day 66, 1 PPB in drinking water, GM rats, 26 at start): 26
- Ill animals [4, 7]: 2
- Well animals [4, 7]: 24
- Total number of rats ([4]; day 73, 1 PPB in drinking water, GM rats, 26 at start): 26
- Dead animals [4, 8]: 1
- Ill animals [4, 8]: 0
- Well animals [4, 8]: 25
- Total number of rats ([4]; day 80, 1 PPB in drinking water, GM rats, 26 at start): 25
- Well animals ([4]; day 150, 1 PPB in drinking water, GM rats): 53
- Total number of rats ([4]; day 150, 1 PPB in drinking water, GM rats, includes 31 new born): 56
- Ill animals ([4]; day 150, 1 PPB in drinking water, GM rats, only a trace of secretion): 3
- symptoms of the three rats listed as ill ([4]; day 150, 1 PPB, GM rats): only a trace of secretion
- state of colony [4, 9]: the colony has continued to thrive
- total number of rats in colony [4, 9]: about 400
